{"source": "patent US8507674B2", "about": "“Quorum sensing inhibitor” (The University of Tokyo, priority 2007, dated 2013)", "key": {"Burkholderia glumae [1]": {"tested_on": "Burkholderia glumae", "test": "Test Example 2: number of microorganisms in culture solution (colony count)", "assay_type": "cell-based", "conditions": "final concentration 100 μM, after 36 hours of cultivation, FIG. 1", "procedure": "Burkholderia glumae was inoculated into an LB culture medium, and cultured at 37° C. overnight. The thus-obtained culture solution was subjected to bacterial collection using a centrifuge, washed with an LB culture medium twice using a fresh LB culture medium each time. To the bacterial cell a fresh LB culture medium was added to prepare a culture suspension of about 3.0×10^5 cfu/mL. Thereafter, each of Compound (1), Compound (2), Compound (3), Compound (4), Compound (5), Compound (8) and Compound (9) produced in Production Examples 1-5 were added to the culture suspension in such a manner that their final concentration became 100 μM, followed by shake culturing for 36 hours. The number of microorganisms in the culture solution 24 hours and 36 hours after the initiation of the culturing were obtained by the following procedure. Specifically, a portion of the culture solution was removed and diluted 1,000-fold, and then seeded to an LB culture medium agar plate. The number of colonies were counted to obtain the number of microorganisms.\nThe same experiments were conducted, as comparative tests, using Comparative Compounds (1)-(3), which were produced in Reference Examples 1-3 and the below-explained compound (Comparative Compound (4)), which is disclosed in Patent Document 1, thereby obtaining the number of microorganisms."}, "Burkholderia glumae [2]": {"tested_on": "Burkholderia glumae", "test": "Test Example 9: amount of toxoflavin produced in culture solution, with comparative compound", "assay_type": "cell-based", "conditions": "0, 20, 40, 60, 80 or 100 μM, shake culturing 20 hours, FIG. 6", "procedure": "Burkholderia glumae was inoculated into an LB culture medium (produced by BD (Difco LB Broth: containing tryptone (10.0 g), yeast extract (5.0 g), and sodium chloride (10.0 g)), and cultured at 37° C. overnight. The thus-obtained culture solution was subjected to bacterial collection using a centrifuge, and washed with an LB culture medium twice using a fresh LB culture medium each time. To the bacterial cell a fresh LB culture medium was added, and then Compound (1) produced in Production Example 1 was added thereto in such a manner that its final concentration became a predetermined value (i.e., 0, 20, 40, 60, 80 or 100 μM), followed by shake culturing for 20 hours. The amount of toxoflavin produced by the bacterial cell in the culture solution was obtained by the following procedure.\nEach culture solution was filtered by a 0.22-μm membrane filter, and 1 mL of the filtrate was isolated. One mL of chloroform was added to the filtrate, followed by extraction. The thus-obtained chloroform layer was concentrated under reduced pressure, and an 80% (V/V) an aqueous methanol solution was added to and dissolved in the residue. The absorbance (at 260 nm) of the solution was measured, and the toxin doses were calculated from the calibration curve, which was obtained using chemically synthesized standard toxin. […]"}, "[3]": {"tested_on": "(gfp expression PAO1-strain)", "test": "Test Example 7: biofilm formation inhibition in flow cell system", "assay_type": "cell-based, Burkholderia aeruginosa", "conditions": "test liquid at 200 μL per minute, observed up to 84 hours by confocal microscope, FIG. 5", "procedure": "Using the flow cell system shown in FIG. 4, the […] aeruginosa biofilm formation inhibition effect of Compound (2), which was produced using Production Example 2, was evaluated.\nA culture medium bottle (1), peristaltic pump (2), glass cell (4) and waste fluid bottle (5) are connected via a silicon tube (6) so that a culture medium (9) is supplied to the glass cell (4) from the culture medium bottle (1) using the peristaltic pump (2). The system includes an air removal section (3) between the peristaltic pump (2) and a turncock (7a) for removing entrained air. All components in the flow cell system were sterilized using gamma rays or an autoclave.\nAs described later, the inhibitory effect against biofilm formation of each of the compounds can be examined in the following manner. Bacteria are cultured in a glass cell (4) to grow a biofilm on the inner wall of the cell, and a test liquid containing one of the compounds is applied to the biofilm. Then the state of the biofilm is observed to evaluate the inhibitory effect against biofilm formation of the compound using a spectral confocal and multiphoton microscope (Leica TCS SP2: produced by Leica). […]"}, "[4]": {"tested_on": "Porphyromonas gingivalis 381-strain", "test": "Test Example 8: biofilm formation inhibition on hydroxyapatite disks in flow cell system", "assay_type": "cell-based", "procedure": "Using the flow cell system shown in FIG. 4, the Porphyromonas gingivalis biofilm formation inhibition effect of Compound (2), which was produced in Production Example 2, was evaluated.\nBacteria: Periodontitis pathogenic bacteria Porphyromonas gingivalis 381-strain (clinical strain) were used.\nCulture Medium: A GAM culture medium containing […] and 1 μg/L menadione was used.\nBacterial Suspension The 381-strain was inoculated into the GAM culture medium, and cultivated until the stationary phase (OD550=1.8). Then the culture medium was diluted 20-fold by the GAM culture medium described above.\nTest liquid: The test liquid was prepared by dissolving Compound (2) into DMSO to obtain 100 μM of DMSO solution of Compound (2). […]\nAfter the cultivation, the HA disks were dipped in 300 μL of sterile distilled water, and treated by supersonic waves for 30 minutes at 4° C. […] Then, the turbidity of 10 μL of the suspension liquid was measured with an absorptiometer (C07500 calorimeter, produced by Funakoshi) (measurement wavelength=550 nm).\nA mean OD was found based on the resulting OD values, excluding the minimum and maximum values. Likewise, the turbidity of the control test liquid was obtained and determined as a control OD value, and then the control mean OD value was found in the same manner. […]"}}, "data": [{"smiles": "CCCCc1cc(=O)n2cccc(O)c2n1", "note": "[Compound (9), 9-hydroxy-2-n-butyl-4H-pyrid[1,2-a]pyrimidin-4-one]", "values": [{"measurement": "control activity against Burkholderia glumae (number of microorganisms)", "setting": "Burkholderia glumae [1]", "result": "can kill almost all Burkholderia glumae"}]}, {"smiles": "CCCCCCCCCC(=O)CC(=O)Nc1ccccc1O", "note": "[Comparative Compound (5), reference compound]", "values": [{"measurement": "toxin doses produced by bacteria (toxoflavin)", "setting": "Burkholderia glumae [2]", "result": "almost no change"}]}, {"smiles": "CCCCCc1cc(=O)n2cccc(O)c2n1", "note": "[Compound (2), 9-hydroxy-2-n-pentyl-4H-pyrid[1,2-a]pyrimidin-4-one]", "values": [{"measurement": "biofilm formation on inner wall of glass cell", "setting": "[3]", "result": "biofilm formation was not observed"}, {"measurement": "Mean OD Value", "setting": "[4]; 100 μM, 14 days circulation, turbidity of biofilm suspension at 550 nm", "result": 0.041}, {"measurement": "inhibition at 100 µM", "setting": "[4]; Porphyromonas gingivalis, 381STRAIN, 336 h, read-out: Inhibition Rate (%) (biofilm formation inhibition rate)", "result": 56.4, "unit": "%"}]}, {"smiles": "CCc1cc(=O)n2cccc(O)c2n1", "note": "[Compound (8), 9-hydroxy-2-ethyl-4H-pyrid[1,2-a]pyrimidin-4-one]", "values": [{"measurement": "control activity against Burkholderia glumae (number of microorganisms)", "setting": "Burkholderia glumae [1]", "result": "can kill almost all Burkholderia glumae"}]}]}
